For this experiment, the target named is imidazoline I2 binding site (Oryctolagus cuniculus). The experiment is described as follows: In vitro binding affinity determined against imidazoline receptor I-2 using rabbit kidney preparation.
As for `c1cc2c3c(c1)OC(C1=NCCN1)CN3CCCC2` (stereo unspecified) [2-(4,5-Dihydro-1H-imidazol-2-yl)-1,2,7,8,9,10-hexahydro-3-oxa-10a-aza-cyclohepta[de]naphthalene], the affinity, expressed as Ki, was 643 nM.

`CN1CC(C)(C2=NCCN2)Oc2ccccc21` (stereo unspecified) [2-(4,5-Dihydro-1H-imidazol-2-yl)-2,4-dimethyl-3,4-dihydro-2H-benzo[1,4]oxazine]: the Ki was above 10000 nM.

`c1ccc2c(c1)NCC(C1=NCCN1)O2` (stereo unspecified) [2-(4,5-Dihydro-1H-imidazol-2-yl)-3,4-dihydro-2H-benzo[1,4]oxazine] came in with a Ki of 51 nM.

`Cc1cccc2c1N(C)CC(C1=NCCN1)O2` (stereo unspecified) [2-(4,5-Dihydro-1H-imidazol-2-yl)-4,5-dimethyl-3,4-dihydro-2H-benzo[1,4]oxazine]: the Ki is 470 nM. Compared with the last molecule, the Ki is about 9.2-fold higher.

`Cc1cc(C)c2c(c1)N(C)CC(C1=NCCN1)O2` (stereo unspecified) [2-(4,5-Dihydro-1H-imidazol-2-yl)-4,6,8-trimethyl-3,4-dihydro-2H-benzo[1,4]oxazine] registered a Ki above 1000 nM.

As for `Cc1ccc2c(c1)OC(C1=NCCN1)CN2C` (stereo unspecified) [2-(4,5-Dihydro-1H-imidazol-2-yl)-4,7-dimethyl-3,4-dihydro-2H-benzo[1,4]oxazine], the Ki came to 47 nM. In other words, the double-digit nanomolar range.

Molecule `Cc1cccc2c1OC(C1=NCCN1)CN2C` (stereo unspecified) [2-(4,5-Dihydro-1H-imidazol-2-yl)-4,8-dimethyl-3,4-dihydro-2H-benzo[1,4]oxazine] displayed a Ki of 54 nM.

In turn, `CCCC1(C2=NCCN2)CN(C)c2ccccc2O1` (stereo unspecified) [2-(4,5-Dihydro-1H-imidazol-2-yl)-4-methyl-2-propyl-3,4-dihydro-2H-benzo[1,4]oxazine] showed a Ki of 8530 nM.

The molecule `COC(=O)c1ccc2c(c1)N(C)CC(C1=NCCN1)O2` (stereo unspecified) [2-(4,5-Dihydro-1H-imidazol-2-yl)-4-methyl-3,4-dihydro-2H-benzo[1,4]oxazine-6-carboxylic acid methyl ester] yielded a Ki of 7 nM.

Regarding `CN1CC(C2=NCCN2)Oc2cc3ccccc3cc21` (stereo unspecified) [2-(4,5-Dihydro-1H-imidazol-2-yl)-4-methyl-3,4-dihydro-2H-naphtho[2,3-b][1,4]oxazine], affinity was put at a Ki of 278 nM. This Ki is about 40-fold higher than that of the molecule before.

Take `CCOCc1ccc2c(c1)N(C)CC(C1=NCCN1)O2` (stereo unspecified) [2-(4,5-Dihydro-1H-imidazol-2-yl)-6-ethoxymethyl-4-methyl-3,4-dihydro-2H-benzo[1,4]oxazine]: the affinity, expressed as Ki, was 17 nM.

Molecule `COc1cc(=O)n2c3c(cccc13)OC(C1=NCCN1)C2` (stereo unspecified) [2-(4,5-Dihydro-1H-imidazol-2-yl)-6-methoxy-2,3-dihydro-1-oxa-3a-aza-phenalen-4-one] yielded a Ki of 750 nM.

For `Cc1ccc2c3c1CCCN3CC(C1=NCCN1)O2` (stereo unspecified) [2-(4,5-Dihydro-1H-imidazol-2-yl)-7-methyl-2,3,5,6-tetrahydro-4H-1-oxa-3a-aza-phenalene], the Ki is above 1000 nM.

Consider `c1cc2c3c(c1)OC(C1=NCCN1)CN3CC2` (stereo unspecified) [4-(4,5-Dihydro-1H-imidazol-2-yl)-1,2,3,4-tetrahydro-5-oxa-2a-aza-acenaphthylene], for which the affinity, expressed as Ki, was 33 nM.

`CN1CC(C2=NCCN2)Oc2ccc(Cl)cc21` (stereo unspecified) [6-Chloro-2-(4,5-dihydro-1H-imidazol-2-yl)-4-methyl-3,4-dihydro-2H-benzo[1,4]oxazine] displayed a Ki of 173 nM. Against the preceding molecule, the Ki is about 5.2-fold higher.

Consider `CN1CC(C2=NCCN2)Oc2ccc(CO)cc21` (stereo unspecified) [[2-(4,5-Dihydro-1H-imidazol-2-yl)-4-methyl-3,4-dihydro-2H-benzo[1,4]oxazin-6-yl]-methanol], for which the affinity corresponds to a Ki of 100 nM.

The record behind these values is BindingDB's records for doi:10.1021/jm021050c (Universit&#233, 2003).
